Patent publication US6794126B2, “Methods for preventing or inhibiting neuronal cell death” (The Trustees of Columbia University in the City of New York, priority 1996, dated 2004)
“Also recorded” adds a separate entry of the source. Residues, ends and D or L forms follow the SMILES beside them. *: point of attachment. Cbz = O=C(OCc1ccccc1)*; CH2F = FC*

What was measured:
[1] = system: sympathetic neurons; assay: Survival of sympathetic neurons exposed to UV irradiation; format: cell-based, rat; details: for survival of UV-treated sympathetic neurons: NGF present, pretreated before UV, flavopiridol 1 mM (sic, FIG. 6A), olomoucine 200 μM, isoolomoucine 200 μM, aphidicolin 10 μM; for concentration of maximal protection: UV-treated, day 1
Description: Cells were exposed to UV irradiation using the Stratolinker UV crosslinker (Stratagene®). Sympathetic neurons were exposed to 3×10^4 μJ while neuronal PC12 cells were exposed to […]. Each well was exposed with 200 μl of medium containing NGF with or without the appropriate drug. After irradiation 300 μl of additional medium containing NGF with or without drug was added.
(§1) The cells were plated onto collagen-coated 24-well dishes at a density of approximately 0.5 ganglia per well and maintained in RPMI 1640 medium supplemented with 10% heat-inactivated horse serum and 60 ng/ml mouse NGF for a period of three days prior to the survival experiment. A mixture of uridine and 5-fluorodeoxyuridine (10 mM each) was also added to eliminate non-neuronal cells on day two. No pretreatment with survival agent, unless otherwise noted, was necessary for effective survival of neurons exposed to AraC. In the case of UV irradiation, the neurons died quite rapidly. Accordingly, neuronal cultures were pretreated overnight (18 hr) with survival-promoting agents prior to UV irradiation. NGF deprivation was performed by washing with NGF-free medium and addition of anti-NGF antiserum as previously described (Park et al., 1996a). V-ASOD1 oligonucleotides, in conjunction with the nitric oxide generator, S-nitrosopenicillamine (SNAP; 100 μM) were added to the cultured sympathetic neurons as previously described (Troy et al., 1997). At appropriate times, the numbers of viable, phase bright neurons were determined by strip counting as previously described (Rydel and Greene; 1988). All experimental points are expressed relative to the original number of neurons present in each well and are reported as mean+/−SEM (n=3).

[2] = system: sympathetic neurons; assay: Survival of sympathetic neurons treated with AraC; format: cell-based; details: for survival of AraC-treated sympathetic neurons: NGF present, flavopiridol 1 mM, olomoucine 200 mM (printed, FIG. 8), isoolomoucine 200 μM, aphidicolin 10 μM; for maximal concentration required to protect from AraC: day 3; for toxicity of the CDK inhibitors to sympathetic neurons: beyond five days, even without AraC treatment
Description: A mixture of uridine and 5-fluorodeoxyuridine (10 mM each) was also added to eliminate non-neuronal cells on day two. No pretreatment with survival agent, unless otherwise noted, was necessary for effective survival of neurons exposed to AraC. In the case of UV irradiation, the neurons died quite rapidly. Accordingly, neuronal cultures were pretreated overnight (18 hr) with survival-promoting agents prior to UV irradiation. […] All experimental points are expressed relative to the original number of neurons present in each well and are reported as mean+/−SEM (n=3).

[3] = system: PC12 cells; assay: PC12 cell survival after SOD1 down-regulation by V-ASOD1; format: cell-based, rat
Description: (§2) PC12 cells were grown as previously described (Greene and Tishcler, 1976) on rat-tail collagen-coated dishes in RPMI 1640 medium containing 5% fetal calf serum and 10% heat-inactivated horse serum (complete medium). NGF primed PC12 cells were grown for at least 7 days in RPMI 1640 medium plus 1% horse serum and NGF (100 ng/ml). For cell survival assays involving trophic factor deprivation, cells (either naive or NGF-pretreated) were extensively washed in serum-free RPMI 1640 medium and re-plated on fresh collagen-coated 24-well dishes as previously described (Rukenstein et al., 1991) in RPMI 1640 medium lacking serum or NGF. For SOD1 down-regulation survival assays, cells were re-plated in complete medium with V-ASOD1 (vector linked antisense oligonucleotide to SOD1, 50 nM). Various concentrations of ICE inhibitors were included in the medium as indicated. Numbers of viable cells per culture were determined by quantifying intact nuclei as previously described (Rukenstein et al., 1991). Counts were performed in triplicate and reported as means±SEM.

[4] = system: PC12 cells; assay: PC12 cell survival after withdrawal of serum/NGF (trophic factor deprivation); format: cell-based, rat
Description: as §2

[5] = system: sympathetic neurons; assay: Survival of cultured sympathetic neurons after NGF withdrawal (Example 1); format: cell-based, rat
Description: Sympathetic neuron cultures were prepared from 2 day old rat pups, as previously described (Ferrari et al., 1995). Cultures were grown in 24-well collagen coated dishes in RPMI 1640 medium plus 10% horse serum with mouse NGF (100 ng/ml). One day following plating, uridine and 5-fluorodeoxyuridine (10 μM each) were added to the cultures and left for three days to eliminate non-neuronal cells. On the sixth day following plating NGF was removed by washing the cultures three times with RPMI 1640 medium plus 10% horse serum, followed by the addition of medium containing anti-mouse NGF (1:200, Sigma) with or without ICE inhibitors. Each culture was scored, as previously described (Rydel and Greene, 1988), as numbers of living, phase-bright neurons at various times. Three replicate cultures were assessed for each condition and data were normalized to numbers of neurons present in each culture at the time of NGF withdrawal and reported as mean±SEM.

[6] = system: neuronal PC12 cells; assay: Survival of neuronal PC12 cells depleted of SOD1 (Example 2); format: cell-based, rat
Description: Naive PC12 cells were cultured and passaged as previously described (Greene and Tischler, 1976). Neuronally-differentiated PC12 cells were generated by exposing PC12 cells to NGF in serum-free RPMI 1640 medium for 8-9 days. For survival experiments, neuronally-differentiated PC12 cells were plated onto collagen-coated 24-well tissue culture dishes at a density of approximately 2×10^5 cells per well. Neuronally-differentiated PC12 cells were cultured in serum-free RPMI 1640 medium containing NGF (100 ng/ml) throughout the course of survival experiments. At appropriate times of culture under the conditions described in the text, cells were lysed and the numbers of viable cells was evaluated as previously described (Rukenstein et al., 1991). All experimental points are expressed as a percentage of cells plated on day 0 and are reported as mean +/−SEM (n=3).

[7] = system: sympathetic neurons; assay: Survival of sympathetic neurons deprived of NGF (Example 2); format: cell-based, rat; details: for death of sympathetic neurons deprived of NGF: CDK inhibitors, same experiments as SOD1 depletion (FIG. 10)
Description: as §1

[8] = system: proliferating PC12 cells; details: proliferating PC12 cells (Park et al., 1996a); cited from earlier work
[9] = system: sympathetic neurons; assay: Survival of sympathetic neurons depleted of SOD1 (V-ASOD1 plus SNAP); format: cell-based, rat
Description: as §1

[10] = system: sympathetic neurons; assay: Survival of sympathetic neurons exposed to camptothecin; format: cell-based, rat; details: V-linked peptides
[11] = system: IL-1β; assay: Assay of IL-1β secreted by PC12 cells (ELISA); format: cell-based, rat; details: 24 h
Description: IL-1β was quantified by ELISA using the Intertest-1βX kit (Genzyme, Cambridge, Mass.). PC12 cells were grown as described above, on 24-well plates, in 500 μl of medium. After one day incubation, medium was removed and IL-1β measured following the manufacturer's instructions, and number of viable cells in each well quantified.

Molecule: Cn1cnc2nc(NCCO)nc(NCc3ccccc3)c21 [isoolomoucine]
- survival of UV-treated sympathetic neurons [1]: nearly ineffective
- survival of AraC-treated sympathetic neurons ([2]; AraC 100 μM): ineffective

Molecule: CC(C)[C@H](NC(=O)[C@H](Cc1ccc(O)cc1)NC(=O)OCc1ccccc1)C(=O)N[C@@H](C)C(=O)N[C@@H](CC(=O)O)C(=O)CCl [ZYVAD-CMK, ZYVAD-chloromethylketone]
- protection from SOD1 down-regulation ([3]; 50 μM): full protection
- protection from trophic factor withdrawal ([4]; 250 μM): only partially effective; also recorded: partial protection
- protection from NGF deprivation ([5]; 250 μM): no effect

Molecule: Cn1cnc2c(NCc3ccccc3)nc(NCCO)nc21 [olomoucine, 2-(2-hydroxyethylamino)-6-benzylamino-9-methylpurine]
- survival of UV-treated sympathetic neurons [1]: effectively promoted survival
- concentration of maximal protection [1]: 200 µM
- survival of AraC-treated sympathetic neurons ([2]; AraC 100 μM): quite effectively promoted long term survival
- maximal concentration required to protect from AraC ([2]; AraC 100 μM): 200 µM
- toxicity of the CDK inhibitors to sympathetic neurons [2]: toxicity
- death of neuronal PC12 cells depleted of SOD1 [6]: failed to inhibit death
- death of sympathetic neurons deprived of NGF [7]: effectively blocked the death
- minimum concentration required to fully inhibit DNA synthesis [8]: 200 µM
- protection of sympathetic neurons depleted of SOD1 ([9]; ASOD1 50 nM with SNAP 100 μM): neither flavopiridol nor olomoucine protected

Molecule: CC(=O)N[C@@H](Cc1ccc(O)cc1)C(=O)N[C@H](C(=O)N[C@@H](C)C(=O)N[C@@H](CC(=O)O)C(=O)CCl)C(C)C [acYVAD-cmk]
- death due to NGF deprivation ([7]; 250 μM, two days): not death due to NGF deprivation
- death evoked by SOD1 depletion ([9]; 250 μM, two days, ASOD1 with SNAP 100 μM): blocks death

Molecule: C[C@@]1(CO)[C@H](O)CC[C@@]2(C)[C@H]1CC[C@H]1C[C@@H]3C[C@@]12CC[C@]3(O)CO [aphidicolin]
- survival of UV-treated sympathetic neurons [1]: failed to block death
- survival of AraC-treated sympathetic neurons ([2]; AraC 100 μM): failed to block death

Molecule: COC(=O)C[C@H](NC(=O)[C@H](C)NC(=O)[C@@H](NC(=O)OCc1ccccc1)C(C)C)C(=O)CF [ZVAD-FMK, ZVAD-fluoromethylketone] (Cbz-Val-Ala-Asp(OMe)-CH2F)
- survival of sympathetic cultures exposed to UV irradiation ([1]; 50 μM, pretreated 16 hr): ineffective
- survival of sympathetic cultures exposed to AraC ([2]; 50 μM, AraC 100 μM): ineffective
- dose required for maximal protection ([3]; V-ASOD1 50 nM, one day): 6 µM
- protection from death due to NGF-depletion ([7]; 50 μM): protects
- concentration required to be fully protective ([4]; serum withdrawal, one day): 50 µM
- protection from NGF deprivation ([5]; 100 μM): protected
- protection of sympathetic neurons depleted of SOD1 ([9]; 50 μM, exposed to nitric oxide generators): protected

Molecule: CN1CC[C@H](c2c(O)cc(O)c3c(=O)cc(-c4ccccc4Cl)oc23)[C@H](O)C1 [flavopiridol]
- survival of UV-treated sympathetic neurons [1]: effectively promoted survival
- concentration of maximal protection [1]: 1 to 3 µM
- survival of AraC-treated sympathetic neurons ([2]; AraC 100 μM): quite effectively promoted long term survival
- maximal concentration required to protect from AraC ([2]; AraC 100 μM): 1 µM
- toxicity of the CDK inhibitors to sympathetic neurons [2]: toxicity
- death of neuronal PC12 cells depleted of SOD1 [6]: failed to inhibit death
- death of sympathetic neurons deprived of NGF [7]: effectively blocked the death
- minimum concentration required to fully inhibit DNA synthesis [8]: 1 µM
- protection of sympathetic neurons depleted of SOD1 ([9]; ASOD1 50 nM with SNAP 100 μM): neither flavopiridol nor olomoucine protected

Molecule: CC[C@H](C)[C@H](N)C(=O)N[C@@H](CCC(N)=O)C(=O)N[C@@H](C)C(=O)N[C@@H](CSSC[C@H](N)C(=O)N[C@@H](CCCNC(=N)N)C(=O)N[C@@H](CCC(N)=O)C(=O)N[C@H](C(=O)N[C@@H](CCCCN)C(=O)N[C@H](C(=O)N[C@@H](Cc1c[nH]c2ccccc12)C(=O)N[C@@H](Cc1ccccc1)C(=O)N[C@@H](CCC(N)=O)C(=O)N[C@@H](CC(N)=O)C(=O)N[C@@H](CCCNC(=N)N)C(=O)N[C@@H](CCCNC(=N)N)C(=O)N[C@@H](CCSC)C(=O)N[C@@H](CCCCN)C(=O)N[C@@H](Cc1c[nH]c2ccccc12)C(=O)N[C@@H](CCCCN)C(=O)N[C@@H](CCCCN)C(=O)O)[C@@H](C)CC)[C@@H](C)CC)C(=O)N[C@@H](CCCNC(=N)N)C(=O)NCC(=O)O [V-ICEinh]
- death of sympathetic neurons exposed to UV ([1]; 200 nM, pretreated 18 hr): blocked death
- death of AraC-treated sympathetic neurons ([2]; 200 nM, AraC 100 μM): blocked death
- effect on the capacity of ASOD1 to lower cellular SOD1 [3]: no effect
- dose required for maximal protection ([3]; V-ASOD1 50 nM, one day): 0.025 to 0.05 µM
- protection from death induced by down-regulation of SOD1 ([3]; naive and NGF-treated PC12 cells, V-ASOD1 50 nM, one day): protects
- protection from NGF deprivation ([7]; 200 nM, pretreated 18 hr): protected
- time of partial protection ([4]; naive and primed PC12 cells, serum/NGF withdrawal): at least 8 days
- peptide concentration giving complete protection from death ([4]; naive and primed PC12 cells, serum/NGF withdrawal, 24 hours): 200 to 400 nM
- death of sympathetic neurons exposed to camptothecin [10]: blocked death
- time for which death was retarded ([5]; 50 nM, NGF-deprived): at least 6 days
- time of complete protection from death ([5]; 50 nM, NGF-deprived): 3 days
- death of sympathetic neurons depleted of SOD1 ([9]; V-linked peptides): blocked death
- increase in IL-1β secretion per cell after SOD1 down-regulation ([11]; V-ICEinh 25 nM for V-ASOD1 treatment): blocked

B1: NGF: nerve growth factor (mouse NGF) (protein, UniProt P01139 122-241, looked up)
Beta-nerve growth factor: SSTHPVFHMGEFSVCDSVSVWVGDKTTATDIKGKEVTVLAEVNINNSVFRQYFFETKCRASNPVESGCRGIDSKHWNSYCTTTHTFVKALTTDEKQAAWRFIRIDTACVCVLSRKATRRG
- increase in IL-1β secretion ([11]; cells treated with NGF): 4 fold

B2: rmIL-1Ra: IL-1 receptor antagonist (protein, UniProt P25085 27-178, looked up)
Interleukin-1 receptor …: RPSGKRPCKMQAFRIWDTNQKTFYLRNNQLIAGYLQGPNIKLEEKIDMVPIDLHSVFLGIHGGKLCLSCAKSGDDIKLQLEEVNITDLSKNKEEDKRFTFIRSEKGPTTSFESAACPGWFLCTTLEADRPVSLTNTPEEPLIVTKFYFQEDQ
- suppression of cell death of V-ASOD1 treated PC12 cells ([3]; 100 ng/ml): completely suppressed cell death
- protection from trophic factor withdrawal ([4]; 10,000 ng/ml, one day): improved survival under these conditions only modestly
